A short description of this data set: solvent given as SMILES.

We go through 52 compounds from the Deep4Chem optical property database.

Several values for one entry are separate records, joined by “and”; a condition that tells them apart may be missing. Equal entries are not always repeated.

For the compound `Cc1cc2ccccc2c2[nH]c3ccccc3c12`, the absorption maximum (in ClCCl) is listed as 300 nm. The same measure, in the same setting: with `CCN(CC)c1ccc2cc(-c3ccc(-c4ccc(-c5cc6ccc(N(CC)CC)cc6oc5=O)cc4)cc3)c(=O)oc2c1` the figure was 417 nm. Same read-out and setting: as for `c1ccc(-c2c3ccccc3c(-c3ccc4ccccc4c3)c3ccccc23)nc1`, the figure is 375 nm. `N#Cc1cc2ccc(cc2)c2cccc3cccc(c4ccc(cc4)cc(C#N)c4ccc(cc4)c4cccc5cccc(c6ccc1cc6)c54)c32` came in with an absorption maximum (in Cc1ccccc1) of 350 nm. In the case of `CN(C)c1ccc(/C=C/C=C/c2ccncc2)cc1`, the absorption maximum is reported as 392 nm (in C1COCCO1), 392 nm (in CC#N), 383 nm (in CCCCCCC) and 394 nm (in CO). As to `COc1c2ccccc2c(OC)c2c(C#CC(C)(C)C)c3cc4ccccc4cc3c(C#CC(C)(C)C)c12`, the absorption maximum (in ClCCl) is 672 nm. The same measure, in the same setting: as for `F[B-]1(F)n2c(Oc3ccccc3)c(Cl)c(Br)c2C(Oc2ccccc2)=C2C(Br)=C(Cl)C(Oc3ccccc3)=[N+]21`, the figure is 533 nm. In turn, `O=C([O-])c1ccccc1C1=c2cc3c4c(c2Oc2c1cc1c5c2CCCN5CCC1)CCC[N+]=4CCC3` gave an absorption maximum (in CC#N) of 577 nm, an absorption maximum (in CCO) of 564 nm, an absorption maximum (in CN(C)C=O) of 580 nm and an absorption maximum (in O) of 575 nm. `C[C@]12SC(=O)C=C1c1nc(-c3ccc(O)cc3)[nH]c1C1=CC(=O)S[C@@]12C` showed an absorption maximum (in CC#N) of 470 nm.

Where the note is “in CCO”, `Cc1c(COC(=O)c2ccccc2Cl)n2c(OCC(=O)c3ccccc3Cl)c(C)c(=O)n2c1=O` returned an absorption maximum of 381 nm. Regarding `CN(C)c1ccc(-c2c(/C=C3/C=Cc4ccccc4N3Cc3ccccc3)c(=O)c2=O)cc1`, the absorption maximum (in C1CCCCC1) came to 358 nm, the absorption maximum (in Cc1ccccc1) came out at 364 nm and the absorption maximum (in ClCCl) was 511 nm. The compound `c1cc2ccc1-c1ccc(cc1)-c1ccc([se]1)-c1ccc(cc1)-c1ccc(cc1)-c1ccc([se]1)-c1ccc(cc1)-c1ccc(cc1)-c1ccc([se]1)-c1ccc(cc1)-c1ccc(cc1)-c1ccc-2[se]1` had an absorption maximum (in C1CCOC1) of 370 nm.

For `O=[N+]([O-])c1ccc(C#Cc2ccc([N+](=O)[O-])cc2)cc1`, the absorption maximum reads like this: (in CO) 329 nm; (in ClCCl) 335 nm.

`Cc1ccc(/C(C#N)=C/c2cc(/C=C(\C#N)c3ccc(C)cc3)c(-c3ccc(N(c4ccccc4)c4ccccc4)cc3)cc2-c2ccc(N(c3ccccc3)c3ccccc3)cc2)cc1` showed an absorption maximum (in C1CCCCC1) of 385 nm; an absorption maximum (in C1CCOC1) of 391 nm; an absorption maximum (in CCCCCC) of 385 nm; an absorption maximum (in CCOC(C)=O) of 393 nm; an absorption maximum (in Cc1ccccc1) of 391 nm; an absorption maximum (in ClC(Cl)Cl) of 385 nm. The same compound returned an absorption maximum (in ClCCl) of 393 nm. Regarding `Cc1c(C(=O)c2ccc(C(F)(F)F)cc2)c2ccc3cccc4c5cccc6ccc1c(c65)c2c34`, the absorption maximum (in ClCCl) came to 370 nm. `CCCCCCc1ccc2c3c(ccc2c1)O[B-](c1ccccc1)(c1ccccc1)[N+](c1ccc([N+]2=Cc4c(ccc5cc(CCCCCC)ccc45)O[B-]2(c2ccccc2)c2ccccc2)cc1)=C3`: the absorption maximum is, setting by setting: (in C1CCOC1) 455 nm; (in CC#N) 452 nm; (in Cc1ccccc1) 462 nm; (in ClCCl) 459 nm. For the compound `O=[N+]([O-])c1ccc(O)c(-c2nc3c(c4c2-c2ccccc2CC4)-c2ccccc2CC3)c1`, the absorption maximum (in ClCCl) turned out to be 342 nm.

The compound `COc1ccccc1C1=[N+]2C(=Cc3c4cc5ccccc5cc4c(-c4ccccc4OC)n3[B-]2(F)F)c2cc3ccccc3cc21` displayed an absorption maximum (in C1CCOC1) of 738 nm. Consider `Cc1cc(C)c(B(c2ccccc2N2c3ccccc3Oc3ccccc32)c2c(C)cc(C)cc2C)c(C)c1`, for which, under “in Cc1ccccc1”, the absorption maximum was 445 nm. Compound `Cc1cc(-c2ccc(N(c3ccccc3)c3ccccc3)cc2)c2nsnc2c1-c1ccc(N(c2ccccc2)c2ccccc2)cc1` had an absorption maximum (in ClCCl) of 432 nm. Turning to `COc1ccc(C2=N/C(=C\c3ccccc3)C(=O)O2)cc1OC`, the absorption maximum (in C1COCCO1) was determined as 378 nm.

Take `CC[N+]1(CC)CN2C(=N1)C(C(=O)O)=Cc1ccc(OC)cc12`: under “in O”, the absorption maximum is given as 372 nm. For the setting “in ClCCl”, `C(#Cc1cccs1)c1ncc(-c2ccccc2)o1` registered an absorption maximum of 325 nm. Where the note is “in ClC(Cl)Cl”, `Cc1cccc(C)c1-c1cc2c(C)c3c4cc5nc6ccc7c8c(C)c9cc(-c%10c(C)cccc%10C)c(-c%10c(C)cccc%10C)cc9c(C)c8c7c6nc5cc4c3c(C)c2cc1-c1c(C)cccc1C` registered an absorption maximum of 487 nm.

With `Cc1ccc2oc(-c3cc4cc(C)ccc4oc3=O)cc2c1`, the absorption maximum runs as follows: (in CC#N) 372 nm; (in CCOC(C)=O) 374 nm; (in CS(C)=O) 377 nm; (in Cc1ccccc1) 378 nm; (in O) 351 nm. As for `COCCOCCOCCOCC(COCCOCCOCCOC)Oc1cc(/C=C/c2ccc(/C=C(\C#N)c3ccc(C(F)(F)F)cc3)cc2)c(OC(COCCOCCOCCOC)COCCOCCOCCOC)cc1/C=C/c1ccc(/C=C(\C#N)c2ccc(C(F)(F)F)cc2)cc1`, for the setting “in ClCCl”, the absorption maximum turned out to be 439 nm.

For the compound `CN(C)c1ccc(C#Cc2ccc(-c3cc(N(C)C)c4ccccc4c3)cc2)cc1`, the absorption maximum (in ClCCl) amounted to 352 nm. Same read-out and setting: as for `CC(C)(C)C1CCC(=CS/C=C/c2ccc(-c3ccc(/C=C/SC=C4CCC(C(C)(C)C)CC4)cc3)cc2)CC1` (stereo not given), the figure is 350 nm.

Consider `O=C1c2ccc3c4ccc5c6c(ccc(c7ccc(c2c37)C(=O)N1c1ccc(O)cc1)c64)C(=O)N(c1ccc(O)cc1)C5=O`, for which the absorption maximum (in C1CCOC1) is reported as 519 nm; the absorption maximum (in CN1CCCC1=O) is 525 nm; the absorption maximum (in CN(C)C=O) is 522 nm and 524 nm. For the setting “in ClCCl”, `CC(C)(C)c1ccc(-c2cc(-c3ccc(-c4cc(-c5ccc(C(C)(C)C)cc5)c(C#N)s4)s3)sc2C#N)cc1` showed an absorption maximum of 392 nm. Compound `c1ccc(-c2nc(-c3ccccc3)nc(-n3c4ccccc4c4cc(-n5c6ccccc6c6ccccc65)ccc43)n2)cc1` had an absorption maximum (in C1CCOC1) of 321.23 nm. Compound `CC(C)(C)c1cc(C(C)(C)C)c(-c2nnc(-c3ccc(-n4c5ccccc5c5ccccc54)cc3)o2)c(C(C)(C)C)c1` registered an absorption maximum (in Cc1ccccc1) of 340 nm. For the setting “in O”, `COc1ccc2ccc([O-])cc2c1` came in with an absorption maximum of 337 nm. For `O=Cc1ccc(-c2ccc(O)c(-c3nc4ccccc4s3)c2)s1`, the absorption maximum (in ClCCl) is reported as 350 nm and the absorption maximum (in O) is 338 nm. For the compound `Cc1c2ccccc2c(C2=C3C=CC=[N+]3[B-](F)(F)n3cccc32)c2ccccc12`, the absorption maximum runs as follows: (in CC#N) 502 nm; (in CCCCCC) 504 nm; (in CCO) 503 nm; (in CN(C)C=O) 506 nm; (in Cc1ccccc1) 508 nm; (in ClCCl) 506 nm. Compound `Cc1cc(C)c(B(c2cc(C#Cc3ccccc3)sc2-c2sc(C#Cc3ccccc3)cc2P(=O)(c2ccccc2)c2ccccc2)c2c(C)cc(C)cc2C)c(C)c1` yielded an absorption maximum (in CO) of 400 nm. For the setting “in ClC(Cl)Cl”, `CCCCCCN1C(=O)c2cccc3c(-c4ccc([N+](=O)[O-])s4)ccc(c23)C1=O` gave an absorption maximum of 363 nm. Still for that read-out and setting: as for `CC(C)(C)c1ccc2oc3nc4oc5ccc(-n6c7ccccc7c7ccccc76)cc5c4cc3c2c1`, the figure is 348 nm.

With `CC1(C)c2ccccc2N(c2ccc3c(c2)Oc2ccccc2S3(=O)=O)c2ccccc21`, the absorption maximum (in Cc1ccccc1) was 356 nm.

Consider `CCC1=C(C)C(=O)n2c1cc1c(C)c(CC(=O)OC)c(C)n1c2=O`, for which the absorption maximum was found to be 413 nm (in CC#N); 413 nm (in CC(C)=O); 420 nm (in CO); 421 nm (in CS(C)=O); 423 nm (in ClC(Cl)Cl); 416 nm (in c1ccccc1). Regarding `COc1ccc(C#Cc2cc3ccccc3oc2=O)cc1`, the absorption maximum (in CC#N) came to 353 nm. Turning to `COc1cc(OC)cc(C2=C3C(C)=C(I)C(C)=[N+]3[B-](F)(F)n3c(C)c(I)c(C)c32)c1`, where the note is “in CS(C)=O”, the absorption maximum was determined as 538 nm. On to `Cc1ccc(C2=C3C=C(I)C(I)=[N+]3[B-](F)(F)n3c2cc(I)c3I)cc1`, for which the absorption maximum runs as follows: (in C1CCCCC1) 581 nm; (in CC#N) 571 nm; (in CCO) 577 nm; (in CCOC(C)=O) 573.5 nm; (in CO) 574.5 nm; (in OCC(F)(F)F) 569 nm.

In turn, `N#C/C(=C\c1ccc([N+](=O)[O-])cc1)c1nc(-c2ccccc2)cs1` displayed an absorption maximum (in CC#N) of 382 nm.

Where the note is “in Cc1ccccc1”, `COCCC1=Cc2nc1ccc1[nH]c(cc1CCOC)c1nc(c(O)cc3[nH]c2cc3CCOC)C(CCOC)=C1` registered an absorption maximum of 680 nm. Consider `COc1ccc2c(c1)N(c1ccccc1-c1ccccc1)c1cc3c(cc1=N2)Oc1c(cc(C(C)(C)C)cc1C(C)(C)C)N=3`, for which the absorption maximum was 532 nm (in CC#N), 559 nm (in CCCCCC) and 552 nm (in CO). Regarding `C(#Cc1ncnc2ccccc12)c1ccc(N(c2ccccc2)c2ccccc2)cc1`, where the note is “in ClCCl”, the absorption maximum stood at 411 nm. For the compound `Cc1ccc(N(c2cc(C(C)(C)C)ccc2C)c2ccc3ccc4c(N(c5ccc(C)cc5C)c5cc(C(C)(C)C)ccc5C)ccc5ccc2c3c54)c(C)c1`, the absorption maximum (in Cc1ccccc1) is on record as 431 nm.

For the setting “in ClC(Cl)Cl”, `CCCCCCCCCCCCCCOc1ccc(C#Cc2cc3nc4c(OCCCCCCCCCCCC)cc5c6cc(OCCCCCCCCCCCC)c(OCCCCCCCCCCCC)cc6c6cc(OCCCCCCCCCCCC)c(OCCCCCCCCCCCC)cc6c5c4nc3cc2C#Cc2ccc(OCCCCCCCCCCCCCC)cc2)cc1` displayed an absorption maximum of 486 nm. Take `CC(C)CCCN1c2ccccc2CCc2ccccc21`: the absorption maximum was determined as 276 nm (in CC#N) and 276 nm (in CO).

For the setting “in C1CCOC1”, `C1=Cc2ccccc2C(=Cc2ccc(-c3cc(-c4ccc(C=C5c6ccccc6C=Cc6ccccc65)cc4)c(-c4ccc(C=C5c6ccccc6C=Cc6ccccc65)cc4)cc3-c3ccc(C=C4c5ccccc5C=Cc5ccccc54)cc3)cc2)c2ccccc21` showed an absorption maximum of 324 nm. In turn, `Cn1nc(-c2ccccc2)cc1-c1ccccc1` had an absorption maximum (in ClCCl) of 254 nm.
